From PubChem BioAssay AID588495 (Sanford-Burnham Center for Chemical Genomics, 2011)
Values joined by “and” are separate entries in the source; they are usually repeats but may differ in a detail not shown here. Equal values may be shown once. Active and inactive are the calls of the source.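 Rule for the calls: active = mean EC50 of 20 µM or lower; inactive = the rest.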

Target: Neurotensin receptor type 2 (Homo sapiens) (UniProt O95665)
Assay: NTR2 agonist activity for selectivity, SAR follow-up, selectivity assay for NTR1 agonist project, imaging, NTR2-U2OS cells, beta-arrestin GFP imaging (AID 588495)
Conditions: image-based GFP translocation

Sequence of Neurotensin receptor type 2 (Homo sapiens) (O95665 whole entry, looked up): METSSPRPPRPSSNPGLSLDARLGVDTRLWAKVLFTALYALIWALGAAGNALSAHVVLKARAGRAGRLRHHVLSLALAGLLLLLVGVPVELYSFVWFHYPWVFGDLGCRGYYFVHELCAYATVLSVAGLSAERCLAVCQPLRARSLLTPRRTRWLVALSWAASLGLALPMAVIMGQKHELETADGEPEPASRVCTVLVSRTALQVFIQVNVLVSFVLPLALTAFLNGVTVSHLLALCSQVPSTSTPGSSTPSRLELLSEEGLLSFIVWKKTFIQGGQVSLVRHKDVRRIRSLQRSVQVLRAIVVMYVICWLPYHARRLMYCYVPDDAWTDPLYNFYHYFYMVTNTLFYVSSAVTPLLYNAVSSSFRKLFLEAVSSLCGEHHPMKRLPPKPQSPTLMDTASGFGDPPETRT

## COc1ccccc1N1CCN(c2ncnc3c2cnn3-c2ccc(C)cc2C)CC1
  EC50: > 40 µM (inactive)

## COc1ccccc1-c1nc(C(=O)N[C@@H](CC(C)C)C(=O)O)cn1-c1ccncc1
  EC50: > 40 µM (inactive)

## COc1cc2c3nnc(-c4ccc(Cl)cc4)c-3cn(Cc3ccc(C)cc3)c2cc1OC
  EC50: 19.9 µM

## Cc1ccc(-n2ncc3c(N4CCN(c5ccccc5)CC4)ncnc32)cc1
  EC50: > 40 µM (inactive)

## COc1cc2c3nnc(-c4ccc(C)c(C)c4)c-3cn(Cc3ccccc3)c2cc1OC
  EC50: > 40 µM (inactive)

## CC(C)C[C@H](NC(=O)c1cn(-c2ccnc3cc(Cl)ccc23)c2ccccc12)C(=O)O
  EC50: > 40 µM (inactive)

## COc1cc2c3nnc(-c4ccc(C)cc4)c-3cn(Cc3ccc(C)cc3)c2cc1OC
  EC50: 5.38 µM

## CC(C)C[C@H](NC(=O)c1cn(-c2ccnc3cc(Cl)ccc23)c(-c2ccccc2)n1)C(=O)O
  EC50: > 40 µM (inactive)

## COc1cccc(OC)c1-c1nc(C(=O)N[C@@H](CC(C)C)C(=O)O)cn1-c1cccc2ccccc12
  EC50: > 40 µM (inactive)

## COc1ccc(Cn2c(SCc3cc(C)ccc3C)nc3cc(OC)c(OC)cc3c2=N)cc1Cl
  EC50: > 40 µM (inactive)

## Cc1ccc(-n2ncc3c(N4CCN(c5cccc(Cl)c5)CC4)ncnc32)c(C)c1
  EC50: > 40 µM (inactive)

## COc1ccc(Cn2c(SCc3ccc(C)cc3)nc3cc(OC)c(OC)cc3c2=N)cc1Cl
  EC50: > 40 µM (inactive)

## O=S(=O)(c1ccc(-c2csc(N/N=C/c3ccco3)n2)cc1)N1CCCC1
  EC50: > 40 µM (inactive)

## COc1cc2c3nnc(-c4ccc(Cl)cc4)c-3cn(Cc3ccc(F)cc3)c2cc1OC
  EC50: 7.78 µM

## COc1ccccc1-c1cc(C(=O)O)nn1-c1ccnc2cc(Cl)ccc12
  EC50: > 40 µM (inactive)

## CCOc1cc2nc(-c3ccc(OC)c(OC)c3)nc(N3CCN(c4ccccc4)CC3)c2cc1OC
  EC50: > 40 µM (inactive)

## COc1cc2c3nnc(-c4ccc(Cl)cc4)c-3cn(Cc3ccccc3)c2cc1OC
  EC50: 8.38 µM

## O=C(O)c1nc(-c2ccnc3ccccc23)c(-c2ccccc2)s1
  EC50: > 40 µM (inactive)

## COc1ccc(Cn2c(SCc3ccccc3)nc3cc(OC)c(OC)cc3c2=N)cc1Cl
  EC50: > 40 µM (inactive)

## c1ccc(Cn2cc3c(-c4ccccc4)nnc-3c3ccccc32)cc1
  EC50: > 40 µM (inactive)

## CN(C)S(=O)(=O)c1ccc(-c2csc(N/N=C/c3ccco3)n2)cc1
  EC50: > 40 µM (inactive)

## COc1ccccc1-c1nc(C(=O)N[C@@H](CC(C)C)C(=O)O)cn1-c1ccnc2cc(Cl)ccc12
  EC50: > 40 µM (inactive)

## COc1cc2c3nnc(-c4ccc(C)c(C)c4)c-3cn(Cc3ccc(C)cc3)c2cc1OC
  EC50: inactive

## CN(C)S(=O)(=O)c1ccc(-c2csc(N/N=C/c3ccc(C(C)(C)C)cc3)n2)cc1
  EC50: > 40 µM (inactive)

## CC(C)C[C@H](NC(=O)c1cn(-c2ccnc3cc(Cl)ccc23)c(-c2c(Cl)cccc2Cl)n1)C(=O)O
  EC50: > 40 µM (inactive)

## Cc1ccc(-n2ncc3c(N4CCN(c5ccccc5F)CC4)ncnc32)c(C)c1
  EC50: > 40 µM (inactive)

## Cc1ccc(C)c(-n2ncc3c(N4CCN(c5ccccc5)CC4)ncnc32)c1
  EC50: > 40 µM (inactive)

## CCOc1ccc(-c2nnc3c4cc(OC)c(OC)cc4n(Cc4ccc(F)cc4)cc2-3)cc1
  EC50: inactive

## COc1ccc(/C=N/Nc2nc(-c3ccc(S(=O)(=O)N(C)C)cc3)cs2)cc1
  EC50: > 40 µM (inactive)

## CCOc1cc2c(N3CCN(c4ccccc4OC)CC3)nc(-c3ccc(OC)c(OC)c3)nc2cc1OC
  EC50: > 40 µM (inactive)

## COc1ccc(N2CCN(c3nc(C4CCC4)nc4cc(OC)c(OC)cc34)CC2)cc1
  EC50: > 40 µM (inactive)

## CC(=O)c1ccc(N2CCN(c3ncnc4c3cnn4-c3ccc(C)cc3C)CC2)cc1
  EC50: > 40 µM (inactive)

## O=S(=O)(c1ccc(-c2csc(N/N=C/c3ccco3)n2)cc1)N1CCOCC1
  EC50: > 40 µM (inactive)

## CCOC(=O)c1cc(-c2c(OC)cccc2OC)n(-c2ccnc3cc(Cl)ccc23)n1
  EC50: > 40 µM (inactive)

## CC(C)C[C@H](NC(=O)c1cn(-c2ccncc2)c(-c2ccccc2)n1)C(=O)O
  EC50: > 40 µM (inactive)

## COc1cc2c3nnc(-c4ccc(C)cc4)c-3cn(Cc3ccc(F)cc3)c2cc1OC
  EC50: 6.4 µM

## CCc1ccc(-c2nnc3c4cc(OC)c(OC)cc4n(Cc4ccc(F)cc4)cc2-3)cc1
  EC50: inactive

## Cc1ccc(Cn2cc3c(-c4ccc(F)cc4)nnc-3c3ccccc32)cc1
  EC50: > 40 µM (inactive)

## COc1cc2nc(-c3ccccc3)nc(N3CCN(c4ccccc4OC)CC3)c2cc1OC
  EC50: > 40 µM (inactive)

## COc1cc2c3nnc(-c4ccc(F)cc4)c-3cn(Cc3ccc(F)cc3)c2cc1OC
  EC50: 9.69 µM

## COc1cccc(OC)c1-c1cc(C(=O)O)nn1-c1ccnc2cc(Cl)ccc12
  EC50: > 40 µM (inactive)

## COc1ccc(-n2ncc3c(N4CCN(c5ccccc5)CC4)ncnc32)cc1
  EC50: > 40 µM (inactive)

## COc1cc2nc(-c3ccccc3)nc(N3CCN(c4ccc(F)cc4)CC3)c2cc1OC
  EC50: > 40 µM (inactive)

## Cc1cccc(C)c1-c1nc(C(=O)N[C@@H](CC(C)C)C(=O)O)cn1-c1ccnc2cc(Cl)ccc12
  EC50: > 40 µM (inactive)

## COc1cc2nc(C3CCC3)nc(N3CCN(c4ccccc4Cl)CC3)c2cc1OC
  EC50: > 40 µM (inactive)

## CCc1ccc(-c2nnc3c4cc(OC)c(OC)cc4n(Cc4ccccc4)cc2-3)cc1
  EC50: > 40 µM (inactive)

## COc1cc2c3nnc(-c4ccc(C)c(C)c4)c-3cn(Cc3ccc(F)cc3)c2cc1OC
  EC50: 4.38 µM

## CCCSc1nc2cc(OC)c(OC)cc2c(=N)n1Cc1cccc(C(F)(F)F)c1
  EC50: > 40 µM (inactive)

## COc1cc2nc(-c3ccccc3)nc(N3CCN(c4ccc(Cl)cc4)CC3)c2cc1OC
  EC50: > 40 µM (inactive)

## Cc1ccc(-n2ncc3c(N4CCN(c5ccc(F)cc5)CC4)ncnc32)c(C)c1
  EC50: > 40 µM (inactive)

## Cc1ccc(-n2ncc3c(N4CCN(c5cc(C)ccc5C)CC4)ncnc32)c(C)c1
  EC50: > 40 µM (inactive)

## COc1cc2nc(C3CCC3)nc(N3CCN(c4ccccc4C)CC3)c2cc1OC
  EC50: > 40 µM (inactive)

## COc1cc2nc(SCc3ccncc3)n(Cc3cccc(C(F)(F)F)c3)c(=N)c2cc1OC
  EC50: > 40 µM (inactive)

## Cc1ccc(-n2ncc3c(N4CCN(c5ccc(Cl)c(Cl)c5)CC4)ncnc32)c(C)c1
  EC50: > 40 µM (inactive)

## COc1cc2c3nnc(-c4ccc(F)cc4)c-3cn(Cc3ccccc3)c2cc1OC
  EC50: 6.02 µM

## COc1cc2nc(C)nc(N3CCN(c4ccccc4OC)CC3)c2cc1OC
  EC50: > 40 µM (inactive)

## COc1ccccc1-c1cc(C(=O)N[C@@H](CC(C)C)C(=O)O)nn1-c1ccnc2cc(Cl)ccc12
  EC50: > 40 µM (inactive)

## COc1cc2nc(-c3ccccc3)nc(N3CCN(c4ccccc4)CC3)c2cc1OC
  EC50: > 40 µM (inactive)

## Cc1ccc(/C=N/Nc2nc(-c3ccc(S(=O)(=O)N(C)C)cc3)cs2)cc1
  EC50: > 40 µM (inactive)

## COc1ccccc1-c1cc(C(=O)N[C@@H](CC(C)C)C(=O)OC(C)(C)C)nn1-c1ccnc2cc(Cl)ccc12
  EC50: > 40 µM (inactive)

## Cc1cc(Cl)ccc1-n1ncc2c(N3CCN(c4ccccc4)CC3)ncnc21
  EC50: > 40 µM (inactive)

## CCOc1ccc(-c2nnc3c4cc(OC)c(OC)cc4n(Cc4ccccc4)cc2-3)cc1
  EC50: > 40 µM (inactive)

## COc1cccc2c(C(=O)N[C@@H](CC(C)C)C(=O)O)cn(-c3ccnc4ccccc34)c12
  EC50: > 40 µM (inactive)

## COc1ccccc1-c1nc(C(=O)N[C@@H](CC(C)C)C(=O)O)cn1-c1ccnc2ccccc12
  EC50: > 40 µM (inactive)

## COc1cccc(N2CCN(c3ncnc4c3cnn4-c3ccc(C)cc3C)CC2)c1
  EC50: > 40 µM (inactive)

## CC(C)C[C@H](NC(=O)c1nc(-c2ccnc3ccccc23)c(-c2ccccc2)s1)C(=O)O
  EC50: > 40 µM (inactive)

## COc1cccc(OC)c1-c1nc(C(=O)N[C@@H](CC(C)C)C(=O)O)cn1-c1ccncc1
  EC50: > 40 µM (inactive)

## COc1ccc(-c2nnc3c4cc(OC)c(OC)cc4n(Cc4ccc(C)cc4)cc2-3)cc1
  EC50: 5.48 µM

## CC(C)C[C@H](NC(=O)c1cn(-c2ccnc3ccccc23)c(-c2ccccc2)n1)C(=O)O
  EC50: > 40 µM (inactive)

## Cc1cccc(-n2ncc3c(N4CCN(c5ccccc5)CC4)ncnc32)c1
  EC50: > 40 µM (inactive)

## c1ccc(N2CCN(c3ncnc4c3cnn4-c3ccccc3)CC2)cc1
  EC50: > 40 µM (inactive)

## Cc1ccc(-n2ncc3c(N4CCN(c5ccccc5Cl)CC4)ncnc32)c(C)c1
  EC50: > 40 µM (inactive)

## COc1cc2c3nnc(-c4ccc(F)cc4)c-3cn(Cc3cccc(C)c3)c2cc1OC
  EC50: 4.47 µM

## Cc1ccc(-n2ncc3c(N4CCN(c5ccccc5)CC4)ncnc32)cc1C
  EC50: > 40 µM (inactive)

## CCN(CC)S(=O)(=O)c1ccc(-c2csc(N/N=C/c3ccco3)n2)cc1
  EC50: > 40 µM (inactive)

## CCCSc1nc2cc(OC)c(OC)cc2c(=N)n1Cc1ccccc1Cl
  EC50: > 40 µM (inactive)

## COc1cc2nc(C3CCC3)nc(N3CCN(c4ccccc4OC)CC3)c2cc1OC
  EC50: > 40 µM (inactive)

## CC(C)C[C@H](NC(=O)c1nc(-c2ccncc2)c(-c2ccccc2)s1)C(=O)O
  EC50: > 40 µM (inactive)

## COc1ccc(N2CCN(c3ncnc4c3cnn4-c3ccc(C)cc3C)CC2)cc1
  EC50: > 40 µM (inactive)

## COc1cccc(OC)c1-c1nc(C(=O)N[C@@H](CC(C)C)C(=O)O)cn1-c1ccnc2cc(Cl)ccc12
  EC50: > 40 µM (inactive)

## COc1cc2nc(C3CCC3)nc(N3CCN(c4ccccc4F)CC3)c2cc1OC
  EC50: > 40 µM (inactive)

## COc1cccc(OC)c1-c1cc(C(=O)N[C@@H](CC(C)C)C(=O)O)nn1-c1ccnc2cc(Cl)ccc12
  EC50: > 40 µM (inactive)

## COc1ccc(/C=N/Nc2nc(-c3ccc(S(=O)(=O)N(C)C)cc3)cs2)cc1OC
  EC50: > 40 µM (inactive)

## CC(C)C[C@H](NC(=O)c1cn(-c2ccnc3ccccc23)c2c(OCc3ccccc3)cccc12)C(=O)O
  EC50: > 40 µM (inactive)

## COc1cc2c3nnc(-c4ccc(F)cc4)c-3cn(Cc3ccc(C)cc3)c2cc1OC
  EC50: 4.14 µM and 3.32 µM

## COc1cc2c3nnc(-c4ccccc4)c-3cn(Cc3ccc(C)cc3)c2cc1OC
  EC50: > 40 µM (inactive)

## COc1cccc(N2CCN(c3nc(C4CCC4)nc4cc(OC)c(OC)cc34)CC2)c1
  EC50: > 40 µM (inactive)
